Results as given in patent US8192962B2, “Processes for detecting toxic substances” (Daikin Industries, Ltd., priority 2001, dated 2012).

Test system: Stress protein genes
Test: DNA chip mRNA expression in yeast, stress protein genes (Table 6)
Type: cell-based, Saccharomyces cerevisiae S288C
Procedure: Yeast (Saccharomyces cerevisiae S288C (α SUC2mal mel gap2 CUP1)) were incubated at 25° C. on YPD medium (yeast extract 1%, polypepton 2%, glucose 2%). One of toxic chemical substances was added to the cells at logarithmic growth phase, and the cells were further incubated for two hours. Cells were cultured without any chemical substance in the same condition, and were used as control. Concentrations of the chemical substances were defined to inhibit the growth of the yeast but not lead to death.
After completion of the incubation, the culture was centrifuged to collect the cells. To the cells, sodium acetate buffer (50 mM sodium acetate, 10 mM EDTA, 1% SDS) was added, and the mixture was shaken at 65° C. for five minutes, followed by returning to room temperature, and obtaining the supernatant, of which the procedures were repeated two times. To the supernatant, ½ amount of a solution of phenol/chloroform was added, and the mixture was centrifuged to give a supernatant, which was added with an equal amount of chloroform, and the mixture was centrifuged to give a supernatant. To the supernatant, an equal amount of isopropanol containing 0.3 M sodium acetate was added, and the mixture was allowed to stand at room temperature for 30 minutes, after which the mixture was centrifuged to give a sediment of the whole RNAs. Seventy % ethanol was added to the sediment, and the mixture was again centrifuged to give a sediment, which was then dried and dissolved in water. mRNA was isolated from the whole RNAs as followings. In view of the fact that a poly A chain is attached to the 3′ terminus of mRNA, a polynucleotide having a poly T structure which was immobilized on the surface of latex beads was used to trap the mRNA, and then the mRNA was washed and eluted with spine column (Oligotex-dT30<Super>mRNA Purification Kit, Takara). Reverse transcription of the mRNA was conducted with a reverse transcriptase (Super Script II Reverse Transcriptase; catalogue No. 18064-014, GibcoBRL) using fluorescence-labeled nucleotides to give cDNAs that were introduced with Cy3-dUTP or Cy5-dUTP during the reverse transcription.
The labeled cDNAs were dissolved in TE buffer (10mM Tris-HCl/1 mM EDTA, pH8.0), and the solution was dropped on the DNA chip containing the whole genes of yeast (DNA Chip Research Inc. Japan) so that the cDNAs were hybridized on the DNA chip at 65° C. for over 12 hours. The fluoresces intensity of the DNA chip was read with a scanner, and the ratio relative to the fluorescence intensity resulting from the absence of chemical substance was estimated as the following, which is shown in Tables 1 to 9: […]

## CN(C)C(=S)SSC(=S)N(C)C [(10), Tetramethylthiuram disulfide]
Yeast gene YAL005C
  The level of expressed mRNA in the presence of chemical substance/The level of expressed mRNA in the absence of chemical substance: 1.8
Yeast gene YAL015C
  The level of expressed mRNA in the presence of chemical substance/The level of expressed mRNA in the absence of chemical substance: 2.7
Yeast gene YBL075C
  The level of expressed mRNA in the presence of chemical substance/The level of expressed mRNA in the absence of chemical substance: 6.7
Yeast gene YBL093C
  The level of expressed mRNA in the presence of chemical substance/The level of expressed mRNA in the absence of chemical substance: 1.1
Yeast gene YBR044C
  The level of expressed mRNA in the presence of chemical substance/The level of expressed mRNA in the absence of chemical substance: 1.2
Yeast gene YBR054W
  The level of expressed mRNA in the presence of chemical substance/The level of expressed mRNA in the absence of chemical substance: 1.2
Yeast gene YBR067C
  The level of expressed mRNA in the presence of chemical substance/The level of expressed mRNA in the absence of chemical substance: 1.0
Yeast gene YBR072W
  The level of expressed mRNA in the presence of chemical substance/The level of expressed mRNA in the absence of chemical substance: 43.4
Yeast gene YBR169C
  The level of expressed mRNA in the presence of chemical substance/The level of expressed mRNA in the absence of chemical substance: 4.3
Yeast gene YCL035C
  The level of expressed mRNA in the presence of chemical substance/The level of expressed mRNA in the absence of chemical substance: 2.3
Yeast gene YCR021C
  The level of expressed mRNA in the presence of chemical substance/The level of expressed mRNA in the absence of chemical substance: 1.0
Yeast gene YCR060W
  The level of expressed mRNA in the presence of chemical substance/The level of expressed mRNA in the absence of chemical substance: 1.1
Yeast gene YCR083W
  The level of expressed mRNA in the presence of chemical substance/The level of expressed mRNA in the absence of chemical substance: 1.8
Yeast gene YDL022W
  The level of expressed mRNA in the presence of chemical substance/The level of expressed mRNA in the absence of chemical substance: 1.8
Yeast gene YDL025C
  The level of expressed mRNA in the presence of chemical substance/The level of expressed mRNA in the absence of chemical substance: 4.5
Yeast gene YDR033W
  The level of expressed mRNA in the presence of chemical substance/The level of expressed mRNA in the absence of chemical substance: 1.0
Yeast gene YDR077W
  The level of expressed mRNA in the presence of chemical substance/The level of expressed mRNA in the absence of chemical substance: 0.7
Yeast gene YDR098C
  The level of expressed mRNA in the presence of chemical substance/The level of expressed mRNA in the absence of chemical substance: 1.5
Yeast gene YDR155C
  The level of expressed mRNA in the presence of chemical substance/The level of expressed mRNA in the absence of chemical substance: 1.3
Yeast gene YDR258C
  The level of expressed mRNA in the presence of chemical substance/The level of expressed mRNA in the absence of chemical substance: 13.3
Yeast gene YDR293C
  The level of expressed mRNA in the presence of chemical substance/The level of expressed mRNA in the absence of chemical substance: 1.2
Yeast gene YDR436W
  The level of expressed mRNA in the presence of chemical substance/The level of expressed mRNA in the absence of chemical substance: 1.1
Yeast gene YDR513W
  The level of expressed mRNA in the presence of chemical substance/The level of expressed mRNA in the absence of chemical substance: 3.1
Yeast gene YDR519W
  The level of expressed mRNA in the presence of chemical substance/The level of expressed mRNA in the absence of chemical substance: 1.2
Yeast gene YEL030W
  The level of expressed mRNA in the presence of chemical substance/The level of expressed mRNA in the absence of chemical substance: 2.5
Yeast gene YEL039C
  The level of expressed mRNA in the presence of chemical substance/The level of expressed mRNA in the absence of chemical substance: 1.2
Yeast gene YER042W
  The level of expressed mRNA in the presence of chemical substance/The level of expressed mRNA in the absence of chemical substance: 2.1
Yeast gene YER057C
  The level of expressed mRNA in the presence of chemical substance/The level of expressed mRNA in the absence of chemical substance: 1.4
Yeast gene YER103W
  The level of expressed mRNA in the presence of chemical substance/The level of expressed mRNA in the absence of chemical substance: 9.0
Yeast gene YER125W
  The level of expressed mRNA in the presence of chemical substance/The level of expressed mRNA in the absence of chemical substance: 1.2
Yeast gene YFL014W
  The level of expressed mRNA in the presence of chemical substance/The level of expressed mRNA in the absence of chemical substance: 5.8
Yeast gene YFL016C
  The level of expressed mRNA in the presence of chemical substance/The level of expressed mRNA in the absence of chemical substance: 2.9
Yeast gene YFL020C
  The level of expressed mRNA in the presence of chemical substance/The level of expressed mRNA in the absence of chemical substance: 1.4
Yeast gene YFR052W
  The level of expressed mRNA in the presence of chemical substance/The level of expressed mRNA in the absence of chemical substance: 3.0
Yeast gene YGL073W
  The level of expressed mRNA in the presence of chemical substance/The level of expressed mRNA in the absence of chemical substance: 2.4
Yeast gene YGL115W
  The level of expressed mRNA in the presence of chemical substance/The level of expressed mRNA in the absence of chemical substance: 1.2
Yeast gene YGL181W
  The level of expressed mRNA in the presence of chemical substance/The level of expressed mRNA in the absence of chemical substance: 2.3
Yeast gene YGR088W
  The level of expressed mRNA in the presence of chemical substance/The level of expressed mRNA in the absence of chemical substance: 3.2
Yeast gene YHL028W
  The level of expressed mRNA in the presence of chemical substance/The level of expressed mRNA in the absence of chemical substance: 0.4
Yeast gene YHL046C
  The level of expressed mRNA in the presence of chemical substance/The level of expressed mRNA in the absence of chemical substance: 2.1
Yeast gene YHR030C
  The level of expressed mRNA in the presence of chemical substance/The level of expressed mRNA in the absence of chemical substance: 2.5
Yeast gene YHR057C
  The level of expressed mRNA in the presence of chemical substance/The level of expressed mRNA in the absence of chemical substance: 1.2
Yeast gene YHR104W
  The level of expressed mRNA in the presence of chemical substance/The level of expressed mRNA in the absence of chemical substance: 2.3
Yeast gene YIL011W
  The level of expressed mRNA in the presence of chemical substance/The level of expressed mRNA in the absence of chemical substance: 0.5
